In assay [1] the test system is P. falciparum Sierra Leone (D-6) clone. The assay is described as follows: In vitro antimalarial susceptibility, 3H-hypoxanthine uptake, Sierra Leone (D-6) clone. Format: cell-based, Plasmodium falciparum. The following applies: for IC50: Plasmodium falciparum. The method, then:
(§1) The former clone is a strain that is resistant to mefloquine and the latter, to chloroquine, pyrimethamine, sulfadoxine, and quinine.
(§2) In vitro assays were conducted using a modification of the semiautomated microdilution technique of Desjardins et al., Antimicrob. Agents Chemoether., 1979, Volume 16, page 710 and Milhous et al., Antimicrob. Agents Chemother., 1985, Volume 27, page 525. Two P. falciparum malaria parasite clones, designated as Indochina (W-2) and Sierra Leone (D-6), were utilized in susceptibility testing. They were derived by direct visualization and micromanipulation from patient isolates obtained by the Centers for Disease Control, Atlanta, GA in 1980 and 1982, respectively. The patients had acquired infections either in Vietnam or Sierra Leone. The Indochina clone is resistant to the antimalarials chloroquine, sulfadoxine, pyrimethamine, and quinine, whereas the Sierra Leone, is resistant to mefloquine but susceptible to chloroquine, quinine, sulfadoxine, and pyrimethamine. Test compounds were initially dissolved in DMSO and 70% ethanol and diluted in RPMI 1640 culture medium with 10% human plasma to 400 fold. Drugs were subsequently further diluted using the Cetus Pro/Pette (Perkin-Elmer Corp., Norwalk, CT) over a range of 1.56-100×10^-9 molar. Parasite inocula (at 0.5% parasitemia and a 1% hematocrit) were incubated for 24 hours and added to equimolar concentrations of each test compound prior to the addition of ^3 H-hypoxanthine. After a further incubation of 18 hours, particulate matter was harvested from each microtiter well using an automated cell harvester (Skatron, Inc., Sterling, VA). Uptake of ^3 H-hypoxanthine was measured using a scintillation spectrophotometer (Model LS3801, Beckman Instruments, Irvine, CA).

Assay [2] deals with P. falciparum Indochina (W-2) clone. The assay is described as follows: In vitro antimalarial susceptibility, 3H-hypoxanthine uptake, Indochina (W-2) clone. Format: cell-based, Plasmodium falciparum. The following applies: for IC50: Plasmodium falciparum. The method, then:
as §1, §2

≈ marks a conversion by molar mass, not a printed value.

The IC50 is the midpoint of a concentration-inhibition curve. Low values mean greater potency in that assay, high ones weaker potency in that assay.

Take `CCOC(=O)COC1OC2OC3(C)CCC4C(C)CCC(C1C)C24OO3` (stereo not drawn) [Compound 5a, Ethyl 2-(10-Dihydroartemisininoxy)acetate]: the results for the half-inhibitory concentration (IC50) in assay [1] and in assay [2] were 0.6 ng/mL (≈ 1.62 nM) and 0.26 ng/mL (≈ 0.702 nM), respectively.

For `COC(=O)CCOC1OC2OC3(C)CCC4C(C)CCC(C1C)C24OO3` (stereo not drawn) [Compound 5b, Methyl 3-(10-Dihydroartemisininoxy)propionate], the values for the IC50 in assay [1] and in assay [2] were 1.84 ng/mL (≈ 4.97 nM) and 0.64 ng/mL (≈ 1.73 nM), respectively.

For the compound `CC1CCC2C(C)C(OCC(=O)O)OC3OC4(C)CCC1C32OO4` (stereo not drawn) [Compound 7a, Potassium 2-(10-Dihydroartemisininoxy)acetate], the “In vitro antimalarial activity IC50, Sierra Leone (D-6)” value in assay [1] was found to be 53.79 ng/mL. Also, half-maximal inhibition in assay [2] (IC50) was put at 26.2 ng/mL.

As to `COC(=O)c1ccc(COC2OC3OC4(C)CCC5C(C)CCC(C2C)C35OO4)cc1` (stereo not drawn) [Compound 5d, Methyl p-(10-Dihydroartemisininoxy)methylbenzoate], the figures for the 50% inhibitory concentration (IC50) in assay [1] and in assay [2] were 0.77 ng/mL (≈ 1.78 nM) and 0.37 ng/mL (≈ 0.855 nM), respectively.

As to `CC1CCC2C(C)C(OCCCC(=O)O)OC3OC4(C)CCC1C32OO4` (stereo not drawn) [Compound 8c, 4-(10-Dihydroartemisininoxy)butyric Acid], in assay [1], the “In vitro antimalarial activity IC50, Sierra Leone (D-6)” value came out at 17.90 ng/mL. In addition, the “In vitro antimalarial activity IC50, Indochina Clone (W-2)” value in assay [2] is recorded as 8.04 ng/mL.

Regarding `COC(=O)CCCOC1OC2OC3(C)CCC4C(C)CCC(C1C)C24OO3` (stereo not drawn) [Compound 5c, Methyl 4-(10-Dihydroartemisininoxy)butyrate], the IC50 worked out at 3.06 ng/mL (≈ 7.96 nM) in assay [1] and 0.95 ng/mL (≈ 2.47 nM) in assay [2].

Regarding `CC1CCC2C(C)C(OCCC(=O)O)OC3OC4(C)CCC1C32OO4` (stereo not drawn) [Compound 7b, Potassium 3-(10-Dihydroartemisininoxy)propionate], the “In vitro antimalarial activity IC50, Sierra Leone (D-6)” value in assay [1] was found to be 85.02 ng/mL. Moreover, the “In vitro antimalarial activity IC50, Indochina Clone (W-2)” value in assay [2] is on record as 23.28 ng/mL.

In the case of `CC1CCC2C(C)C(OCCCC(=O)O)OC3OC4(C)CCC1C32OO4` (stereo not drawn) [Compound 7c, Potassium 4-(10-Dihydroartemisininoxy)butyrate], the “In vitro antimalarial activity IC50, Sierra Leone (D-6)” value in assay [1] was 75.52 ng/mL. Moreover, 10.5 ng/mL corresponded to half-maximal inhibition in assay [2] (IC50).

On to `CC1CCC2C(C)C(OCCC(=O)O)OC3OC4(C)CCC1C32OO4` (stereo not drawn) [Compound 8b, 3-(10-Dihydroartemisininoxy)propionic Acid], for which the “In vitro antimalarial activity IC50, Sierra Leone (D-6)” value in assay [1] is listed as 51.74 ng/mL. Moreover, in assay [2], it took 35.6 ng/mL (≈ 100 nM) to reach half-maximal inhibition (IC50).

These data come from patent US4791135A (priority 1987, dated 1988).
